Converted amounts (≈) assume the structure as drawn. Like-named read-outs stand apart in the source and are kept apart here. *1 amine or outer side, *2 acyl side, *3 side chain or, on linkers, in order; H or OH if unused. Where a SMILES comes first, the peptide text is derived from it. [ ]: non-standard residue; d: D form. dAla(ψthiazole) = C[C@@H](N[*:1])c1nc(C(=O)[*:2])cs1; Trp(4-Br) = N[C@@H](Cc1c[nH]c2cccc(Br)c12)C(=O)O; Dha = C=C(N)C(=O)O; Sar = CNCC(=O)O
Assays:
[1] = test system: Citrobacter koseri Clinical
[2] = test system: Staphylococcus aureus ATCC 29213
B. cepasia ATCC25416 = test: Growth of Burkholderia with compound (FIG. 3), B. cepasia; type: cell-based; settings: FIG. 3, LB broth, 17 hours
Protocol: (§1) FIG. 3 is a graph showing the effect of varying concentrations of compound 3 according to the invention on the growth of Burkholderia in Lysogeny broth (LB broth) after 17 hours.
(§2) Compound 3 was tested to determine its antibacterial activity against B. multivorans, B. cepasia and B. vietnamiensis.

[3] = test system: Lactobacillus rhamnosus ATCC 53103
P. aeruginosa PAO1 = settings: PAO1, 13 h
[4] = test system: Enterococcus faecium NCTC 12204
[5] = test system: Corynebacterium jeikeium NCTC 11914
[6] = Protocol: In this study, a single oral dose of compound 3 in 0.5% w/v aqueous methylcellulose at 5 mg/kg was administered to nine mice in a 10 mL/kg dosing volume and housed in metabolism cages. Following administration of the compound, serial blood samples of 50 μL was taken from the lateral tail vein at each of 7 post-dosing time-points (0.25, 0.5, 1, 2, 4, 7 and 24 h). Whole blood samples were then diluted 1:1 with water and two 40 μL aliquots were pipetted into duplicate 96 well plate tubes. At the end of 24 h, all faecal samples were collected and pooled. A quantitative bioanalysis by LC-MS/MS of the blood and faecal levels of compound 3 was carried out to determine the oral absorbability and gastrointestinal metabolic stability of compound 3.
To evaluate the metabolic stability of orally administered compound 3, metabolite profiling of the faecal sample was performed.

[7] = test system: clinical isolates and one wild-type strain of P. aeruginosa; test: Growth of P. aeruginosa clinical isolates and wild-type strain with compounds (FIG. 1); type: cell-based, Pseudomonas aeruginosa; settings: isolates W4, W14, W23, W46 and PAO1; MH media, 13 hours (FIG. 1)
Protocol: FIGS. 1a and 1b are graphs showing the effects of varying concentrations of compounds 2 and 3 according to the invention on the growth of different strains of P. aeruginosa in Müller-Hinton (MH) media, after 13 hours.
The antibacterial activity of compounds 2 and 3 were tested against clinical isolates and one wild-type strain of P. aeruginosa displaying varying antibiotic sensitivity.
The antibacterial activity of compounds 2 and 3 were tested against these clinical isolates and one wild-type strain of P. aeruginosa.

[8] = test system: Escherichia coli ATCC 25922
[9] = test system: Clostridium perfringens NCTC 8237
[10] = test system: Corynebacterium urealyticum NCTC 12011
[11] = test system: Clostridium difficile 630Δerm; settings: 13 h
[12] = test system: Bifidobacterium bifidum ATCC 11863
[13] = test system: Clostridium sordellii ATCC 9714; test: CLSI MIC, representative gut bacteria; type: cell-based
Protocol: (§3) Comparative in vitro bacterial susceptibility to compounds 3, 9 and 10, vancomycin and metronidazole was determined using methods according to the Clinical and Laboratory Standard Institute (CLSI) approved guidelines (M7-A10, M11-A7 or M45-A2) for anaerobic and aerobic organisms.

[14] = test system: Clostridium difficile ATCC 43255; test: CLSI MIC, representative gut bacteria; type: cell-based; settings: Clostridium difficile ATCC 43255
Protocol: as §3

Strep. agalactiae = settings: 13 h
[15] = test system: Propionibacterium acnes ATCC 6919
[16] = test system: Corynebacterium striatium NCTC 764
[17] = test system: Proteus mirabilis DSM 30116
[18] = test system: Enterococcus faecalis ATCC 29212
Strep. pyogenes = settings: 13 h
[19] = test system: Bifidobacterium breve ATCC 15700
[20] = test system: Enterobacter cloacae NCTC 13406
[21] = test system: Bacteroides fragilis ATCC 25285; settings: ATCC 25285
[22] = test system: Pseudomonas aeruginosa ATCC 27853
[23] = test system: Clostridium innocuum DSM 1286
[24] = test system: Pseudomonas aeruginosa NCTC 13437
[25] = test system: Clostridium ramosum DSM 1402
B. vietnamiensis J2863 = test: Growth of Burkholderia with compound (FIG. 3), B. vietnamiensis; type: cell-based; settings: FIG. 3, LB broth, 17 hours
Protocol: as §1, §2

[26] = test system: Actinomyces viscosus DSM 43327
[27] = test system: Bacteroides fragilis ATCC 25285; test: microbe, parasite or virus in culture; settings: ATCC25285
[28] = test system: Clostridium innocuum DSM 1286; test: microbe, parasite or virus in culture; settings: DSM1286
[29] = test system: Bifidobacterium bifidum ATCC 11863; test: microbe, parasite or virus in culture; settings: ATCC11863
[30] = test system: Bifidobacterium breve ATCC 15700; test: microbe, parasite or virus in culture; settings: ATCC15700
[31] = test system: Clostridium perfringens NCTC 8237; test: microbe, parasite or virus in culture
[32] = test system: Clostridium ramosum DSM 1402; test: microbe, parasite or virus in culture; settings: Thomasclavelia ramosa, DSM1402
[33] = test system: Actinomyces viscosus DSM 43327; test: microbe, parasite or virus in culture; settings: DSM43327
[34] = test system: Propionibacterium acnes ATCC 6919; test: microbe, parasite or virus in culture; settings: Cutibacterium acnes, ATCC6919
[35] = test system: Enterococcus faecalis ATCC 29212; test: microbe, parasite or virus in culture; settings: ATCC29212
[36] = test system: Enterococcus faecium NCTC 12204; test: microbe, parasite or virus in culture; settings: NCTC12204
[37] = test system: Clostridium difficile strains (21 clinical, 7 reference)
[38] = test system: Staphylococcus aureus ATCC 29213; test: microbe, parasite or virus in culture; settings: ATCC29213
[39] = test system: Lactobacillus rhamnosus ATCC 53103; test: microbe, parasite or virus in culture; settings: Lacticaseibacillus rhamnosus, ATCC53103
[40] = test system: Corynebacterium striatium NCTC 764; test: microbe, parasite or virus in culture; settings: NCTC764
[41] = test system: C. difficile ATCC 43255 (aka VPI 10463; ribotype 087); test: Mouse model of C. difficile-associated disease; type: in vivo, C57BL/6 mice
[42] = test system: Corynebacterium urealyticum NCTC 12011; test: microbe, parasite or virus in culture; settings: NCTC12011
[43] = test system: Clostridium difficile strains (21 clinical, 7 reference); test: microbe, parasite or virus in culture; settings: Clostridioides difficile
[44] = test system: Corynebacterium jeikeium NCTC 11914; test: microbe, parasite or virus in culture; settings: NCTC11914

## C=C1NC(=O)[C@@H](C)NC(=O)CNC(=O)[C@H](Cc2c[nH]c3cccc(Br)c23)NC(=O)[C@H](Cc2c[nH]c3ccccc23)NC(=O)c2csc(n2)[C@@H](C)NC(=O)CN(C)C1=O [Compound 3, Cyclo[D-Ala-Thz-Trp-Trp(4-Br)-Gly-D-Ala-Dha-Sar]] (cyclo([Dha][Sar][dAla(ψthiazole)]W[Trp(4-Br)]G[dA]))
[1]
  MIC: >64 µg/mL
[2]
  MIC: >64 µg/mL
B. cepasia ATCC25416
  antibacterial activity (growth decrease): highly active
[3]
  MIC: >64 µg/mL
B. multivorans ATCC17616; ATCC17616, 25 h
  IC50: 1.6 ± 1.4 µM
B. multivorans ATCC17616; FIG. 3, LB broth, 17 hours
  antibacterial activity (growth decrease): highly active
P. aeruginosa PAO1
  IC50: 13.2 ± 3.2 µM
P. aeruginosa PAO1; 100
  % Growth inhibition at 100 μM: 85.7 ± 0.6%
[4]
  MIC: >64 µg/mL
[5]
  MIC: >64 µg/mL
[6]; LC-MS metabolite profiling, above control sample
  share of the mass of compounds detected in pooled faecal sample that corresponds to the compound: 85%
[6]; oral 5 mg/kg, mice, 24 h
  compound recovered from pooled faeces: 63%
[6]; single oral dose 5 mg/kg, mice, over 24 h
  systemic exposure (blood): undetectable
[7]
  susceptibility of the isolates to the compound: equally susceptible
[8]
  MIC: >64 µg/mL
[9]
  MIC: >64 µg/mL
[10]
  MIC: >64 µg/mL
[11]
  IC50: 0.13 ± 0.02 µM
[12]
  MIC: >64 µg/mL
[13]
  MIC: 32 µg/mL (≈ 36.6 µM)
[14]
  MIC: 1.0 µg/mL (≈ 1.14 µM)
Strep. agalactiae
  IC50: > 100 µM
[15]
  MIC: >64 µg/mL
[16]
  MIC: >64 µg/mL
[17]
  MIC: >64 µg/mL
[18]
  MIC: >64 µg/mL
Strep. pyogenes
  IC50: > 100 µM
[19]
  MIC: >64 µg/mL
[20]
  MIC: >64 µg/mL
[21]
  MIC: >64 µg/mL
[22]
  MIC: >64 µg/mL
[23]
  MIC: >64 µg/mL
[24]
  MIC: >64 µg/mL
[25]
  MIC: >64 µg/mL
B. vietnamiensis J2863
  antibacterial activity (growth decrease): highly active
[26]
  MIC: 64 µg/mL (≈ 73.2 µM)

## Cc1ncc([N+](=O)[O-])n1CCO [Metronidazole]
[27]
  MIC: 0.5 µg/mL (≈ 2.92 µM)
[28]
  MIC: 0.5 µg/mL (≈ 2.92 µM)
[29]
  MIC: 2 µg/mL (≈ 11.7 µM)
[30]
  MIC: 4 µg/mL (≈ 23.4 µM)
[13]; Paraclostridium sordellii, ATCC9714, read-out: MIC
  MIC: 1 µg/mL (≈ 5.84 µM)
[14]; Clostridioides difficile, ATCC43255, read-out: MIC
  MIC: 0.5 µg/mL (≈ 2.92 µM)
[31]
  MIC: 1 µg/mL (≈ 5.84 µM)
[32]
  MIC: 4 µg/mL (≈ 23.4 µM)
[33]
  MIC: 2 µg/mL (≈ 11.7 µM)
[34]
  MIC: > 64 µg/mL

## CN[C@H](CC(C)C)C(=O)N[C@H]1C(=O)N[C@@H](CC(N)=O)C(=O)N[C@H]2C(=O)N[C@H]3C(=O)N[C@H](C(=O)N[C@H](C(=O)O)c4cc(O)cc(O)c4-c4cc3ccc4O)[C@H](O)c3ccc(c(Cl)c3)Oc3cc2cc(c3O[C@@H]2O[C@H](CO)[C@@H](O)[C@H](O)[C@H]2O[C@H]2C[C@](C)(N)[C@H](O)[C@H](C)O2)Oc2ccc(cc2Cl)[C@H]1O [Vancomycin, reference compound]
[35]
  MIC: 2 µg/mL (≈ 1.38 µM)
[36]
  MIC: > 64 µg/mL
[37]; 28 C. difficile strains
  MIC50: 0.5 µg/mL (≈ 0.345 µM)
  MIC90: 0.5 µg/mL (≈ 0.345 µM)
[37]; C. difficile strain 630 (ribotype 012)
  MIC: 0.5 µg/mL (≈ 0.345 µM)
[37]; C. difficile strain BI1-FDX^R
  MIC: 0.5 µg/mL (≈ 0.345 µM)
[37]; C. difficile strain Clin. 1
  MIC: 0.5 µg/mL (≈ 0.345 µM)
[37]; C. difficile strain Clin. 2
  MIC: 0.5 µg/mL (≈ 0.345 µM)
[37]; C. difficile strain Clin. 3
  MIC: 0.5 µg/mL (≈ 0.345 µM)
[37]; C. difficile strain Clin. 6
  MIC: 0.5 µg/mL (≈ 0.345 µM)
[37]; C. difficile strain Clin. 7
  MIC: 0.5 µg/mL (≈ 0.345 µM)
[37]; C. difficile strain Clin. 8
  MIC: 0.5 µg/mL (≈ 0.345 µM)
[37]; C. difficile strain Clin. 9
  MIC: 0.5 µg/mL (≈ 0.345 µM)
[37]; C. difficile strain Clin. 10
  MIC: 0.5 µg/mL (≈ 0.345 µM)
[37]; C. difficile strain Clin. 11
  MIC: 0.5 µg/mL (≈ 0.345 µM)
[37]; C. difficile strain Clin. 12
  MIC: 0.5 µg/mL (≈ 0.345 µM)
[37]; C. difficile strain Clin. 13
  MIC: 0.5 µg/mL (≈ 0.345 µM)
[37]; C. difficile strain Clin. 14
  MIC: 0.5 µg/mL (≈ 0.345 µM)
[37]; C. difficile strain Clin. 15
  MIC: 0.5 µg/mL (≈ 0.345 µM)
[37]; C. difficile strain Clin. 16
  MIC: 0.5 µg/mL (≈ 0.345 µM)
[37]; C. difficile strain Clin. 18
  MIC: 0.5 µg/mL (≈ 0.345 µM)
[37]; C. difficile strain Clin. 20
  MIC: 0.5 µg/mL (≈ 0.345 µM)
[37]; C. difficile strain Clin. 21
  MIC: 0.5 µg/mL (≈ 0.345 µM)
[37]; C. difficile strain Clin. 22
  MIC: 0.5 µg/mL (≈ 0.345 µM)
[37]; C. difficile strain Clin. 23
  MIC: 0.5 µg/mL (≈ 0.345 µM)
[37]; C. difficile strain Clin. 24
  MIC: 0.5 µg/mL (≈ 0.345 µM)
[38]
  MIC: 1 µg/mL (≈ 0.69 µM)
[39]
  MIC: > 64 µg/mL
[40]
  MIC: 0.5 µg/mL (≈ 0.345 µM)
[41]; 10 mg/kg
  survival to the end of the study at day-21 post-infection: survived to the end of the study
[41]; 10 mg/kg oral BD for 5 days
  Mean survival: 504.00 h
[42]
  MIC: 1 µg/mL (≈ 0.69 µM)
[43]
  MIC: 0.5 µg/mL (≈ 0.345 µM)
  MIC50: 0.5 µg/mL (≈ 0.345 µM)
  MIC90: 0.5 µg/mL (≈ 0.345 µM)
[43]; ATCC9689
  MIC: 0.5 µg/mL (≈ 0.345 µM)
[43]; ATCC13366
  MIC: 0.5 µg/mL (≈ 0.345 µM)
[43]; ATCC43255
  MIC: 0.5 µg/mL (≈ 0.345 µM)
[43]; ATCC700057
  MIC: 0.5 µg/mL (≈ 0.345 µM)
[43]; BAA1875
  MIC: 0.5 µg/mL (≈ 0.345 µM)
[43]; read-out: MIC40
  MIC: 0.5 µg/mL (≈ 0.345 µM)
[44]
  MIC: 1 µg/mL (≈ 0.69 µM)
